US20230174485A1, “LIPOXYGENASE INHIBITORS” (SRI International, priority 2020, published 2023)
“And” between values parts separate entries of the source, which are not always exact repeats. Equal values may be shown once. Read-outs that look alike come from different tables or passages of the source.

Columns and labels:
Format in all cases: biochemical
[1] = molecular target: T1, recombinant 12-LOX enzyme (Homo sapiens, UniProt P18054); test: 12-LOX fluorescent assay; settings: several values in one cell = repeat determinations
T1 sequence (P18054 1-663): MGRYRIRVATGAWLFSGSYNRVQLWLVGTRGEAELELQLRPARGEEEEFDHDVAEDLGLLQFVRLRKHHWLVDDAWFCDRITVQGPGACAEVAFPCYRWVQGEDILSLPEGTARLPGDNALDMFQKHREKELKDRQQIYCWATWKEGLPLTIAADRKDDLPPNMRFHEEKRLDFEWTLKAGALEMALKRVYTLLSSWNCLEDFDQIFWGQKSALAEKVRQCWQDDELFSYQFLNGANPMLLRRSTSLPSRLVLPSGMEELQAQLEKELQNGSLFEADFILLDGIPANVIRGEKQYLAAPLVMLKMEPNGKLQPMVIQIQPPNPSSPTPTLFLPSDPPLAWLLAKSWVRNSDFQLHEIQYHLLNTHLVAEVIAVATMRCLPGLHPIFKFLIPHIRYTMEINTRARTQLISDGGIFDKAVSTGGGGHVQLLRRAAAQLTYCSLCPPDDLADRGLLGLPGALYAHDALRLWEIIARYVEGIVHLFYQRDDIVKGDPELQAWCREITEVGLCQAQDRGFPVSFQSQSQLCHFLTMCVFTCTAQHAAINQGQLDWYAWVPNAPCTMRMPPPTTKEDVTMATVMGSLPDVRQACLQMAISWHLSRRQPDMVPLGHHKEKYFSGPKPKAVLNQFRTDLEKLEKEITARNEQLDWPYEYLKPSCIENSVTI
Experimental: (§1) 12-LOX/15-LOX Fluorescent Assay
(§2) The enzyme assay (100 ul) contained 50 mM Tris, pH 7.5, 0.05% Tween-20, 20 μM AA/LA, 1 μM DHR123, and 100 nM recombinant 12-LOX enzyme/50 nM recombinant 15-LOX enzyme. Inhibitors (dissolved in DMSO) were plated at 1 μL into 96-well assay microplates followed by a 40 μL addition of a solution containing 12-LOX/15-LOX enzyme. Enzyme was pre-incubated with compounds for 15 mins. The assay was initiated by the addition of a 40 μL substrate solution containing AA/LA, and 20 μL addition of a solution containing DHR123. Enzymatic reaction proceeded for 30 min with kinetic reading at 500 nm excitation & 536 nm emission in SpectraMax Paradigm (MolecularDevice). Percent inhibition was calculated for each compound dose for IC50 curve fitting using 4 Parameter Logistic Model or Sigmoidal Dose-Response Model.

[2] = molecular target: T2, recombinant 15-LOX enzyme (Homo sapiens, UniProt P16050); test: 15-LOX fluorescent assay; settings: several values in one cell = repeat determinations
T2 sequence (P16050 1-662): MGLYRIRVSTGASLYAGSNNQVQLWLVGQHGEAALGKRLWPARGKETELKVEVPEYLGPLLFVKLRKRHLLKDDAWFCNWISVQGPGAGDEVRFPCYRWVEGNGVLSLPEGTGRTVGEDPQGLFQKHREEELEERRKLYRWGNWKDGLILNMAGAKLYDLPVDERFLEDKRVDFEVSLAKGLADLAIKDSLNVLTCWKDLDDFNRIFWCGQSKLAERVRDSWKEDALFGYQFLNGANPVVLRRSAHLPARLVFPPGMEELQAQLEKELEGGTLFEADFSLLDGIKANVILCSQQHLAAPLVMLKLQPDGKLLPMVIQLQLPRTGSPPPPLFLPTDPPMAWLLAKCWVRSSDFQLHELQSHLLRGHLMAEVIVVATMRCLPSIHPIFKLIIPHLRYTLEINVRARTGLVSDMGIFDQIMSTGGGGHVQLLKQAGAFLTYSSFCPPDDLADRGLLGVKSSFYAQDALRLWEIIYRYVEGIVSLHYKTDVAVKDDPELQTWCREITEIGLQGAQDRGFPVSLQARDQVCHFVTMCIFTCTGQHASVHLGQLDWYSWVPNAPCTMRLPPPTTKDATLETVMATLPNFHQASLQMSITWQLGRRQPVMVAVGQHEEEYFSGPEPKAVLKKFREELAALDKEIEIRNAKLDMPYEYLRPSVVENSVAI
Experimental: as §1, §2

recombinant 5-LOX = molecular target: T3, recombinant 5-LOX (Homo sapiens, UniProt P09917); test: 5-LOX fluorescent assay; settings: several values in one cell = repeat determinations; read-out: IC50 (μM) values for in vitro lipoxygenase inhibition, 5-LOX
T3 sequence (P09917 1-674): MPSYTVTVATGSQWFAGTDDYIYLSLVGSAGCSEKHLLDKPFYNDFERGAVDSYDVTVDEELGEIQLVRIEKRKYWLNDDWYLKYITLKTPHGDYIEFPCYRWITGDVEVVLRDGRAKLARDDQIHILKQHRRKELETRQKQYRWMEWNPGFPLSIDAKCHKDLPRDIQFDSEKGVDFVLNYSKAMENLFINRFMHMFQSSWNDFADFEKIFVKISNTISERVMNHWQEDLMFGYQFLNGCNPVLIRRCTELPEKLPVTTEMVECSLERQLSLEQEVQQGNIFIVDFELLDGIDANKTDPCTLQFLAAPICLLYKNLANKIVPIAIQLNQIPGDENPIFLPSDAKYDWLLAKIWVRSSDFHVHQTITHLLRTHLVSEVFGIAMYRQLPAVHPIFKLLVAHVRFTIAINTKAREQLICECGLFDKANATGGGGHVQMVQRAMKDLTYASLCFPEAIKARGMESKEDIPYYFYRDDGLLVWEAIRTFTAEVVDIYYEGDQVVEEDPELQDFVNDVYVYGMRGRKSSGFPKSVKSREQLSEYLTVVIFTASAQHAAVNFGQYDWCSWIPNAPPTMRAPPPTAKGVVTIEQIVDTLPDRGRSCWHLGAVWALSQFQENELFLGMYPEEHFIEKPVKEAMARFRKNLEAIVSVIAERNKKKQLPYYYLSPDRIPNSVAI
Experimental: 5-LOX FI assay Fluorescent Assay
The enzyme assay (100 μL) contained 50 mM Tris, pH 7.5, 0.1 mM EDTA, 0.3 mM CaCl2, 20 μM AA, 100 μM ATP, 1 μM DHR123, and recombinant 5-LOX cell lysate (0.5 μL/100 μL). Inhibitors (dissolved in DMSO) were plated at 1 μL into 96-well assay microplates followed by a 40 μL addition of a solution containing 5-LOX enzyme. Enzyme was pre-incubated with compounds for 15 mins. The assay was initiated by the addition of a 40 μL substrate solution containing AA and ATP, and 20 μL addition of a solution containing DHR123. Enzymatic reaction proceeded for 30 min with kinetic reading at 500 nm excitation & 536 nm emission in SpectraMax Paradigm (MolecularDevice). Percent inhibition was calculated for each compound dose for IC50 curve fitting using 4 Parameter Logistic Model or Sigmoidal Dose-Response Model.

[3] = read-out: IC50 (μM) values for in vitro lipoxygenase inhibition, 12-LOX
[4] = read-out: IC50 (μM) values for in vitro lipoxygenase inhibition, 15-LOX
[5] = IC50 (μM) values for in vitro lipoxygenase inhibition, 15-LOX

SMILES	IC50 [1, 3]	IC50 [2, 4]	IC50 (recombinant 5-LOX)	IC50 [2, 5]	IC50 ([1]; IC50 (μM) values for in vitro lipoxygenase inhibition, 12-LOX)
COc1cccc2c1[nH]c1ccc(F)cc12 [SS20308-0002-01, 6-fluoro-1-methoxy-9H-carbazole]	8.04 µM	4.33 µM	20.8 µM		
CN(C)CCOc1c(O)ccc2c1[nH]c1ccc(F)cc12 [SS20308-0004-01, 1-(2-(dimethylamino)ethoxy)-6-fluoro-9H-carbazol-2-ol]	3.19 µM	2.55 µM			
COc1ccc2c([nH]c3ccc(F)cc32)c1OCCN(C)C [SS20308-0007-01, 2-(6-fluoro-2-methoxy-9H-carbazol-1-yloxy)-N,N-dimethylethanamine]	22 µM		32.2 µM	8.64 µM	
Cc1cc(OCCn2cncn2)c2[nH]c3ccccc3c2c1 [SS20308-0017-01, 1-(2-(1H-1,2,4-triazol-1-yl)ethoxy)-3-methyl-9H-carbazole]	2.85 µM	3.49 µM	6.06 µM		
c1ccc(-c2cc3c([nH]c4ccccc43)c(OCCn3cncn3)n2)cc1 [SS20308-0018-01]	4.07 µM		47 µM	1.39 µM	
CN(C)CCOc1c(Nc2ccccc2)ccc2c1[nH]c1ccc(F)cc12 [SS20308-0032-01, 1-(2-(dimethylamino)ethoxy)-6-fluoro-N-phenyl-9H-carbazol-2-amine]	0.21 µM	15.9 µM	0.27 µM		
CN(C)CCOc1c(NCc2ccccc2)ccc2c1[nH]c1ccc(F)cc12 [SS20308-0036-01, N-benzyl-1-(2-(dimethylamino)ethoxy)-6-fluoro-9H-carbazol-2-amine]	0.4 µM	0.8 µM	0.35 µM		
CN(C)CCOc1cccc2c1-c1[nH]c3ccccc3c1CS2 [SS20308-0046-01, 2-(6,11-dihydrothiochromeno[4,3-b]indol-1-yloxy)-N,N-dimethylethanamine]	0.62 µM	0.97 µM	0.63 µM		
CN(C)CCOc1c(NCc2ccccc2)ccc2c1[nH]c1ncccc12 [SS20308-0047-01, N-benzyl-8-(2-(dimethylamino)ethoxy)-9H-pyrido[2,3-b]indol-7-amine]	0.36 µM and 0.49 µM		0.36 µM and 0.82 µM	1.13 µM and 1.93 µM	
c1ccc2c(c1)[nH]c1c(OCCn3cncn3)c3c(cc12)[nH]c1ccccc13 [SS20308-0059-01, 6-(2-(1H-1,2,4-triazol-1-yl)ethoxy)-5,11-dihydroindolo[3,2-b]carbazole]			0.04 µM and 0.03 µM	0.03 µM and 0.02 µM	0.03 µM and 0.02 µM
CN(C)CCCc1c2[nH]c3ccccc3c2cc2[nH]c3ccccc3c12 [SS20308-0104-01, 3-(5,11-dihydroindolo[3,2-b]carbazol-6-yl)-N,N-dimethylpropan-1-amine]				0.02 µM	
CN(C)CCCc1c2[nH]c3ccc(F)cc3c2c(F)c2[nH]c3ccc(F)cc3c12 [SS20308-0163-01, N,N-dimethyl-3-(2,8,12-trifluoro-5,11-dihydroindolo[3,2-b]carbazol-6-yl)propan-1-amine]			20 nM (2×) and 40 nM and 50 nM and 10 nM		

Further lines, with some results ahead:

IC50 [1, 3]	IC50 [2, 4]	IC50 (recombinant 5-LOX)	IC50 [2, 5]	SMILES	IC50 ([1]; IC50 (μM) values for in vitro lipoxygenase inhibition, 12-LOX)
7.6 µM	1.82 µM	6.83 µM		CN(C)CCOc1cc(Oc2ccccc2)cc2c1[nH]c1ccc(F)cc12 [SS20308-0054-01]	
0.99 µM	2.19 µM	0.62 µM		c1ccc(N(CCCn2cncn2)c2ccc3c(c2)[nH]c2ccccc23)cc1 [SS20308-0060-01, N-(3-(1H-1,2,4-triazol-1-yl)propyl)-N-phenyl-9H-carbazol-2-amine]	
0.19 µM and 0.29 µM		0.36 µM and 0.79 µM	0.94 µM and 1.33 µM	c1ccc(-c2cc3c(cc2NCCn2cncn2)[nH]c2ccccc23)cc1 [SS20308-0061-01, N-(2-(1H-1,2,4-triazol-1-yl)ethyl)-3-phenyl-9H-carbazol-2-amine]	
30 nM and 40 nM (3×)				Fc1ccc2[nH]c3cc(-c4ccccc4)c(NCCn4cncn4)cc3c2c1 [SS20308-0094-01, N-(2-(1H-1,2,4-triazol-1-yl)ethyl)-6-fluoro-2-phenyl-9H-carbazol-3-amine]	
		33 µM and > 1 µM		c1ccc(CN(CCCn2cncn2)c2ccc3[nH]c4ccccc4c3c2)cc1 [SS20308-0097-01, N-(3-(1H-1,2,4-triazol-1-yl)propyl)-N-benzyl-9H-carbazol-3-amine]	
0.05 µM and 0.11 µM			0.02 µM and 0.04 µM	CN(C)CCOc1c2[nH]c3ccccc3c2c(F)c2[nH]c3ccccc3c12 [SS20308-0102-01, 2-(12-fluoro-5,11-dihydroindolo[3,2-b]carbazol-6-yloxy)-N,N-dimethylethanamine]	
		0.55 µM and 0.26 µM and 0.35 µM	1 µM and 0.41 µM and 0.86 µM	c1ccc(N(CCn2cncn2)c2ccc3[nH]c4ccccc4c3c2)cc1 [SS20308-0108-01, N-(2-(1H-1,2,4-triazol-1-yl)ethyl)-N-phenyl-9H-carbazol-3-amine]	
0.09 µM and 0.04 µM and 0.14 µM	0.12 µM and 0.08 µM and 0.17 µM			CC(C)CCOc1cc2c3ccccc3[nH]c2c2[nH]c3ccccc3c12 [SS20308-0127-01, 5-(isopentyloxy)-11,12-dihydroindolo[2,3-a]carbazole]	
0.05 µM and 0.08 µM	0.08 µM and 0.2 µM			c1ccc(-c2cc3c(cc2NCCn2cncn2)Nc2ccccc2CC3)cc1 [SS20308-0152-01, N-(2-(1H-1,2,4-triazol-1-yl)ethyl)-2-phenyl-10,11-dihydro-5H-dibenzo[b,f]azepin-3-amine]	
		0.01 µM and 0.04 µM		CN(C)CCc1cc(Nc2ccc(Cl)cc2)cc2c1[nH]c1ccccc12 [SS20308-0257-01, N-(4-chlorophenyl)-1-(2-(dimethylamino)ethyl)-9H-carbazol-3-amine]	
